# Where two headings read alike, the source gives them in different places.
# Test system: panel of cell lines and tumor explants
# Assay: Soft agar (clonogenic) assay on cell lines and tumor explants
# Assay type: cell-based, human
# Parameters: key to Differential: panel average log(GI50) minus sample log(GI50); positive = more sensitive
# Conditions: for GI50: Homo sapiens; for Differential: average log(GI50) 0.236 minus log(GI50)
# Procedure: Compound IIa was tested against a panel of cell lines and tumor explants in a soft agar assay as described in Fiebig, H. H., Maier, A., and Burger, A. M. (Clonogenic assay with established human tumour xenorafts: correlation of in vitro to in vivo activity as a basis for anticancer drug discovery, Eur. J. Cancer 40, 802-820 (2004).) Table 16 lists the type of cancer, the name of the sample, its GI50 (concentration needed to achieve 50% growth inhibition) value in the assay, the logarithm of the GI50 (log(GI50), and the relative sensitivity of each sample (Differential). The differential is calculated by subtracting the log(GI50) for each cell line from the average log(GI50) across the entire panel (0.236 in this case); a positive value indicates a sample that is more sensitive than average, whereas a negative value indicates a sample that is less sensitive than average.
structure (smiles),measurement,setting,value
CC(C)(C)[C@H](c1nc(-c2cc(F)ccc2F)cn1Cc1ccccc1)N(CC[C@H](N)CF)C(=O)CO [Compound IIa],GI50,"MOLT-4, Leukemia (ALL), sample MOLT4, read-out: GI50",0.877 nM
same,GI50,"Mean across the entire panel, read-out: GI50",1.72 nM
same,GI50,"Melanoma, sample 462, GI50 in nM, read-out: log(GI50) (converted)",≥ 10 nM
same,GI50,"Melanoma, sample 462, read-out: GI50",10 nM
same,GI50,"Melanoma, sample 989, GI50 in nM, read-out: log(GI50) (converted)",12.7 nM
same,GI50,"Melanoma, sample 989, read-out: GI50",12.7 nM
same,GI50,"Melanoma, sample 1341, GI50 in nM, read-out: log(GI50) (converted)",≥ 10 nM
same,GI50,"Melanoma, sample 1341, read-out: GI50",10 nM
same,GI50,"NSCLC, sample 211, GI50 in nM, read-out: log(GI50) (converted)",0.216 nM
same,GI50,"NSCLC, sample 211, read-out: GI50",0.216 nM
same,GI50,"NSCLC, sample 289, GI50 in nM, read-out: log(GI50) (converted)",4.9 nM
same,GI50,"NSCLC, sample 289, read-out: GI50",4.9 nM
same,GI50,"NSCLC, sample 526, GI50 in nM, read-out: log(GI50) (converted)",1.26 nM
same,GI50,"NSCLC, sample 526, read-out: GI50",1.26 nM
same,GI50,"NSCLC, sample 629, GI50 in nM, read-out: log(GI50) (converted)",≥ 10 nM
same,GI50,"NSCLC, sample 629, read-out: GI50",10 nM
same,GI50,"NSCLC, sample 677, GI50 in nM, read-out: log(GI50) (converted)",1.16 nM
same,GI50,"NSCLC, sample 677, read-out: GI50",1.16 nM
same,GI50,"NSCLC, sample 737, GI50 in nM, read-out: log(GI50) (converted)",3.07 nM
same,GI50,"NSCLC, sample 737, read-out: GI50",3.07 nM
same,GI50,"NSCLC, sample 1012, GI50 in nM, read-out: log(GI50) (converted)",0.927 nM
same,GI50,"NSCLC, sample 1012, read-out: GI50",0.926 nM
same,GI50,"NSCLC, sample 1176, GI50 in nM, read-out: log(GI50) (converted)",3 nM
same,GI50,"NSCLC, sample 1176, read-out: GI50",3 nM
same,GI50,"NSCLC, sample 1422, GI50 in nM, read-out: log(GI50) (converted)",0.728 nM
same,GI50,"NSCLC, sample 1422, read-out: GI50",0.728 nM
same,GI50,"NSCLC, sample 1647, GI50 in nM, read-out: log(GI50) (converted)",16.7 nM
same,GI50,"NSCLC, sample 1647, read-out: GI50",16.8 nM
same,GI50,"Ovarian, sample 899, GI50 in nM, read-out: log(GI50) (converted)",≥ 10 nM
same,GI50,"Ovarian, sample 899, read-out: GI50",10 nM
same,GI50,"Ovarian, sample 1353, GI50 in nM, read-out: log(GI50) (converted)",≥ 10 nM
same,GI50,"Ovarian, sample 1353, read-out: GI50",10 nM
same,GI50,"PC-3M, Prostate, sample PC3M, GI50 in nM, read-out: log(GI50) (converted)",0.424 nM
same,GI50,"PC-3M, Prostate, sample PC3M, read-out: GI50",0.424 nM
same,GI50,"Pancreas, sample 546, GI50 in nM, read-out: log(GI50) (converted)",2.59 nM
same,GI50,"Pancreas, sample 546, read-out: GI50",2.59 nM
same,GI50,"Pancreas, sample 736, GI50 in nM, read-out: log(GI50) (converted)",1.26 nM
same,GI50,"Pancreas, sample 736, read-out: GI50",1.26 nM
same,GI50,"Pancreas, sample 1657, GI50 in nM, read-out: log(GI50) (converted)",27 nM
same,GI50,"Pancreas, sample 1657, read-out: GI50",27 nM
same,GI50,"Pancreas, sample 1861, GI50 in nM, read-out: log(GI50) (converted)",0.622 nM
same,GI50,"Pancreas, sample 1861, read-out: GI50",0.623 nM
same,GI50,"Pancreas, sample 1869, GI50 in nM, read-out: log(GI50) (converted)",10.9 nM
same,GI50,"Pancreas, sample 1869, read-out: GI50",10.9 nM
same,GI50,"Pancreas, sample 1872, GI50 in nM, read-out: log(GI50) (converted)",0.282 nM
same,GI50,"Pancreas, sample 1872, read-out: GI50",0.282 nM
same,GI50,"Pancreas, sample 1876, GI50 in nM, read-out: log(GI50) (converted)",0.337 nM
same,GI50,"Pancreas, sample 1876, read-out: GI50",0.337 nM
same,GI50,"Pancreas, sample 1881, GI50 in nM, read-out: log(GI50) (converted)",2.32 nM
same,GI50,"Pancreas, sample 1881, read-out: GI50",2.32 nM
same,GI50,"Pancreas, sample 1887, GI50 in nM, read-out: log(GI50) (converted)",≥ 10 nM
same,GI50,"Pancreas, sample 1887, read-out: GI50",10 nM
same,GI50,"Pancreas, sample 1900, GI50 in nM, read-out: log(GI50) (converted)",16.9 nM
same,GI50,"Pancreas, sample 1900, read-out: GI50",16.9 nM
same,GI50,"Pancreas, sample 1912, GI50 in nM, read-out: log(GI50) (converted)",0.112 nM
same,GI50,"Pancreas, sample 1912, read-out: GI50",0.112 nM
same,GI50,"Pancreas, sample 1937, GI50 in nM, read-out: log(GI50) (converted)",0.185 nM
same,GI50,"Pancreas, sample 1937, read-out: GI50",0.185 nM
same,GI50,"Prostate, sample MRIH1579, GI50 in nM, read-out: log(GI50) (converted)",≥ 10 nM
same,GI50,"Prostate, sample MRIH1579, read-out: GI50",10 nM
same,GI50,"SCLC, sample 538, GI50 in nM, read-out: log(GI50) (converted)",0.339 nM
same,GI50,"SCLC, sample 538, read-out: GI50",0.339 nM
same,GI50,"SCLC, sample 573, GI50 in nM, read-out: log(GI50) (converted)",0.587 nM
same,GI50,"SCLC, sample 573, read-out: GI50",0.587 nM
same,GI50,"SCLC, sample 615, GI50 in nM, read-out: log(GI50) (converted)",0.082 nM
same,GI50,"SCLC, sample 615, read-out: GI50",0.082 nM
same,GI50,"SCLC, sample 650, GI50 in nM, read-out: log(GI50) (converted)",0.376 nM
same,GI50,"SCLC, sample 650, read-out: GI50",0.376 nM
same,GI50,"SCLC, sample H69, GI50 in nM, read-out: log(GI50) (converted)",0.269 nM
same,GI50,"SCLC, sample H69, read-out: GI50",0.269 nM
same,GI50,"Sarcoma, sample 117, GI50 in nM, read-out: log(GI50) (converted)",0.249 nM
same,GI50,"Sarcoma, sample 117, read-out: GI50",0.249 nM
same,GI50,"Sarcoma, sample 417, GI50 in nM, read-out: log(GI50) (converted)",0.16 nM
same,GI50,"Sarcoma, sample 417, read-out: GI50",0.16 nM
same,GI50,"Sarcoma, sample 463, GI50 in nM, read-out: log(GI50) (converted)",19.1 nM
same,GI50,"Sarcoma, sample 463, read-out: GI50",19.1 nM
same,GI50,"Sarcoma, sample 627, GI50 in nM, read-out: log(GI50) (converted)",≥ 10 nM
same,GI50,"Sarcoma, sample 627, read-out: GI50",10 nM
same,GI50,"Sarcoma, sample 1186, GI50 in nM, read-out: log(GI50) (converted)",0.327 nM
same,GI50,"Sarcoma, sample 1186, read-out: GI50",0.327 nM
same,GI50,"Sarcoma, sample 1301, GI50 in nM, read-out: log(GI50) (converted)",0.235 nM
same,GI50,"Sarcoma, sample 1301, read-out: GI50",0.235 nM
same,GI50,"Sarcoma, sample 1410, GI50 in nM, read-out: log(GI50) (converted)",2.24 nM
same,GI50,"Sarcoma, sample 1410, read-out: GI50",2.25 nM
same,GI50,"U-937, Lymphoma (NHL), sample U937, GI50 in nM, read-out: log(GI50) (converted)",0.0859 nM
same,GI50,"U-937, Lymphoma (NHL), sample U937, read-out: GI50",0.086 nM
same,Differential,"Leukemia (ALL), sample CCRFCEM",0.779
same,Differential,"Leukemia (ALL), sample JURKAT",1.211
same,Differential,"Leukemia (ALL), sample MOLT4",0.293
same,Differential,"Leukemia (CML), sample K562",0.805
same,Differential,"Lymphoma (NHL), sample U937",1.302
same,log(GI50),"Mean across the entire panel, GI50 in nM",0.236
same,Differential,"Melanoma, sample 462",−0.764
same,Differential,"Melanoma, sample 989",−0.868
same,Differential,"Melanoma, sample 1341",−0.764
same,Differential,"NSCLC, sample 211",0.902
same,Differential,"NSCLC, sample 289",−0.454
same,Differential,"NSCLC, sample 526",0.134
same,Differential,"NSCLC, sample 629",−0.764
same,Differential,"NSCLC, sample 677",0.171
same,Differential,"NSCLC, sample 737",−0.250
same,Differential,"NSCLC, sample 1012",0.270
same,Differential,"NSCLC, sample 1176",−0.241
same,Differential,"NSCLC, sample 1422",0.374
same,Differential,"NSCLC, sample 1647",−0.988
same,Differential,"Ovarian, sample 899",−0.764
same,Differential,"Ovarian, sample 1353",−0.764
same,Differential,"Pancreas, sample 546",−0.177
same,Differential,"Pancreas, sample 736",0.134
same,Differential,"Pancreas, sample 1657",−1.194
same,Differential,"Pancreas, sample 1861",0.442
same,Differential,"Pancreas, sample 1869",−0.800
same,Differential,"Pancreas, sample 1872",0.786
same,Differential,"Pancreas, sample 1876",0.709
same,Differential,"Pancreas, sample 1881",−0.128
same,Differential,"Pancreas, sample 1887",−0.764
same,Differential,"Pancreas, sample 1900",−0.992
same,Differential,"Pancreas, sample 1912",1.187
same,Differential,"Pancreas, sample 1937",0.969
same,Differential,"Prostate, sample 22RV1",0.506
same,Differential,"Prostate, sample DU145",0.236
same,Differential,"Prostate, sample MRIH1579",−0.764
same,Differential,"Prostate, sample PC3M",0.609
same,Differential,"SCLC, sample 538",0.706
same,Differential,"SCLC, sample 573",0.468
same,Differential,"SCLC, sample 615",1.323
same,Differential,"SCLC, sample 650",0.661
same,Differential,"SCLC, sample H69",0.807
same,Differential,"Sarcoma, sample 117",0.840
same,Differential,"Sarcoma, sample 417",1.032
same,Differential,"Sarcoma, sample 463",−1.045
same,Differential,"Sarcoma, sample 627",−0.764
same,Differential,"Sarcoma, sample 1186",0.722
same,Differential,"Sarcoma, sample 1301",0.865
same,Differential,"Sarcoma, sample 1410",−0.115
same,sensitive samples / samples,bladder,4/6
same,sensitive samples / samples,breast,7/10
same,sensitive samples / samples,hematological cancers (leukemia and lymphoma),5/5
same,sensitive samples / samples,sarcomas,4/7
same,sensitive samples / samples,small cell lung cancer (SCLC),5/5
same,average log(GI50) across the entire panel,soft agar assay panel,0.236

# Reference: patent US8252832B2, “Kinesin inhibitors as cancer therapeutics” (Novartis AG, priority 2007, dated 2012)
